Test results from patent publication US6890708B2, “Method for improving the quality of sperm for artificial insemination of animals” (priority 2000, dated 2005).
Like-named read-outs stand apart in the source and are kept apart here.

System: Polymorphonuclear Neutrophils (PMN)
Assay: In vitro phagocytosis of boar sperm by PMN (phagocytosis assay)
Type: cell-based, pig
Settings: for % of phagocytosed sperm: Exp. 1; for inhibition at 200 µM / inhibition at 500 µM / inhibition at 1000 µM / inhibition at 2000 µM: Sus scrofa, Polymorphonuclear neutrophil, read-out: % inhibition (percentage decrease of phagocytosis relative to control)
Protocol: Tyrode's medium was used as described as “standard Tyrode's medium” in […] et al. ([…], Harrison, R A P, Miller, N G A, Topper, E K, and Woelders, H, 1998, Enhanced Binding of Zona Pellucida Proteins to the Acrosomal Region of Intact Boar Spermatozoa in Response to Fertilizing Conditions: A Flow Cytometric Study. […] Serum was prepared from blood collected from 11 primiparous sows, pooled, and frozen in aliquots at -80° C. Per experiment, 20 ml peripheral blood of a single Dutch Landrace sow (each experiment a different sow) was collected in heparinized vacutainers (Venoject, Omnilabo, Breda, The Netherlands). The peripheral blood was subsequently diluted with an equal volume of phosphate buffered saline (PBS). […] The supernatant, including the mononuclear cells at the interface, was removed. The pellet was resuspended in 2 ml of ice-cold distilled water to lyse the erythrocytes. […] The PMNs were pelleted by centrifugation for 10 min at 400×g and the lysis procedure was repeated. […] All cell suspensions were pooled together, mixed well, and subjected to centrifugation. The PMN were resuspended in TM-s with inactivated complement, and the cell concentration was determined using a hemocytometer. The PMN preparation was stored overnight at 4° C. […] The viability, assessed by trypan blue exclusion, was >98%. Semen was obtained from Dutch A.I. stations. Per experiment, semen was used from a single Yorkshire breeding boar (each experiment a different boar). At the AI-station, the semen was diluted to a concentration of approximately 30×10^6 cells/ml in Beltsville Thawing Solution (BTS) (Johnson et al., 1988). The diluted semen was stored at 17° C. for up to 48 hours, until the diluted semen sample was used. […] Aliquots of 80 μl of the PMN suspension (see, PMN isolation and preparation of PMNs) in TM or TM-s, with either intact or inactivated complement, were transferred to a 96-well polystyrene microtest plate. […] The samples were incubated with gentle swirling on a test plate shaker. […] The heparin facilitates dissociation of agglutinated PMNs. The samples were thoroughly mixed, left for 15 min., and mixed again. […] The frozen-thawed semen was taken from a large stock of semen from one ejaculate and washed 3 times in PBS prior to use. […] The mounts enabled observation and counting of fluorescently labeled spermatozoa inside and outside the phagocytes. By focusing at different levels in the mount, spermatozoa that were located above or below the PMN could be distinguished from those that were phagocytosed. In many PMNs that had ingested a spermatozoon, the presence of the sperm nucleus or tail caused a conspicuous change of the shape of the PMN. Two hundred spermatozoa were evaluated and classified as inside or outside the PMN (i.e., phagocytosed or not phagocytosed). The same fixed mounts were used to assess the acrosome morphology of the non-phagocytosed spermatozoa at the moment of fixation.

[1] = Exp. 2, 0.2 mM, without pre-incubation, 15 min
[2] = Exp. 2, 0.2 mM, without pre-incubation, 30 min
[3] = Exp. 2, 0.2 mM, without pre-incubation, 60 min
[4] = Exp. 2, 0.5 mM, after pre-incubation, 15
[5] = Exp. 2, 0.5 mM, after pre-incubation, 30
[6] = Exp. 2, 0.5 mM, after pre-incubation, 60
[7] = Exp. 2, 0.5 mM, without pre-incubation, 15 min
[8] = Exp. 2, 0.5 mM, without pre-incubation, 30 min
[9] = Exp. 2, 0.5 mM, without pre-incubation, 60 min
[10] = Exp. 2, 1 mM, after pre-incubation, 15
[11] = Exp. 2, 1 mM, after pre-incubation, 30
[12] = Exp. 2, 1 mM, after pre-incubation, 60
[13] = Exp. 2, 1 mM, without pre-incubation, 15 min
[14] = Exp. 2, 1 mM, without pre-incubation, 30 min
[15] = Exp. 2, 1 mM, without pre-incubation, 60 min
[16] = Exp. 2, 2 mM, after pre-incubation, 15
[17] = Exp. 2, 2 mM, after pre-incubation, 30
[18] = Exp. 2, 2 mM, after pre-incubation, 60
[19] = Exp. 2, 2 mM, without pre-incubation, 15 min
[20] = Exp. 2, 2 mM, without pre-incubation, 30 min
[21] = Exp. 2, 2 mM, without pre-incubation, 60 min
[22] = Exp. 3, 1 mM, pre-incubation of sperm 30 min. at 38° C., 15 min
[23] = Exp. 3, 1 mM, pre-incubation of sperm 30 min. at 38° C., 30 min
[24] = Exp. 3, 1 mM, pre-incubation of sperm 30 min. at 38° C., 60 min

Cn1c(=O)c2c(ncn2C)n(C)c1=O [caffeine, 1,3,7-Trimethylxanthine]
phagocytosis of sperm by PMN in vitro, in words: decreased | % of phagocytosed sperm (1 mM, without pre-incubation, 1st value column, head not printed): 20% | % of phagocytosed sperm (1 mM, without pre-incubation, 2nd value column, head not printed): 22% | % of phagocytosed sperm (1 mM, without pre-incubation, 3rd value column, head not printed): 18% | % of phagocytosed sperm (2 mM, preincubated 30 min. at 38° C., phagocytosis time 15 min): 22% | % of phagocytosed sperm (2 mM, preincubated 30 min. at 38° C., phagocytosis time 30 min): 15% | % of phagocytosed sperm (2 mM, preincubated 30 min. at 38° C., phagocytosis time 60 min): 29% | % of phagocytosed sperm (2 mM, preincubated 30 min. at 38° C., phagocytosis time 90 min): 20% | % phagoc. sperm [1]: 48% | % phagoc. sperm [2]: 73% | % phagoc. sperm [3]: 75% | % phag. Sperm [4]: 29% | % phag. Sperm [5]: 28% | % phag. Sperm [6]: 42% | % phagoc. sperm [7]: 40% | % phagoc. sperm [8]: 67% | % phagoc. sperm [9]: 68% | % phag. Sperm [10]: 14% | % phag. Sperm [11]: 26% | % phag. Sperm [12]: 24% | % phagoc. sperm [13]: 29% | % phagoc. sperm [14]: 58% | % phagoc. sperm [15]: 62% | % phag. Sperm [16]: 9% | % phag. Sperm [17]: 17% | % phag. Sperm [18]: 21% | % phagoc. sperm [19]: 28% | % phagoc. sperm [20]: 51% | % phagoc. sperm [21]: 56% | % phag. Sperm [22]: 32% | % phag. Sperm [23]: 45% | % phag. Sperm [24]: 56% | phagocytosis of sperm, in words (Exp. 4, caffeine added to the semen extender the day before use): inhibits phagocytosis after one day | phagocytosis of sperm by PMN in vitro, in words (Exp. 5, 1 mM): reduced the phagocytosis of sperm by PMN in vitro | inhibition at 200 µM [1]: 9% | inhibition at 200 µM [2]: 4% | inhibition at 200 µM [3]: 3% | inhibition at 500 µM [4]: 38% | inhibition at 500 µM [5]: 56% | inhibition at 500 µM [6]: 33% | inhibition at 500 µM [7]: 25% | inhibition at 500 µM [8]: 12% | inhibition at 500 µM [9]: 12% | inhibition at 1000 µM [10]: 70% | inhibition at 1000 µM [11]: 59% | inhibition at 1000 µM [12]: 62% | inhibition at 1000 µM [13]: 45% | inhibition at 1000 µM [14]: 24% | inhibition at 1000 µM [15]: 19% | inhibition at 2000 µM [16]: 81% | inhibition at 2000 µM [17]: 73% | inhibition at 2000 µM [18]: 67% | inhibition at 2000 µM [19]: 47% | inhibition at 2000 µM [20]: 33% | inhibition at 2000 µM [21]: 27% | inhibition at 1000 µM [22]: 43% | inhibition at 1000 µM [23]: 37% | inhibition at 1000 µM [24]: 29%
